The source of these data is patent US20070275968A1, “Substituted Biphenyl Derivative” (priority 2004, published 2007).

In general, melting point refers to the temperature, or range, at which the solid turns liquid.

Compound `Cc1ccc(-c2cccc(-c3nc(C(C)C)[nH]c3-c3cccc(C)n3)c2)cc1` [Example 3, 2-[2-Isopropyl-4-(4′-methyl-1,1′-biphenyl-3-yl)-1H-imidazol-5-yl]-6-methylpyridine] showed a melting point of 76 to 79 °C.
Next, `COc1ccc(-c2cccc(-c3nc(C(C)C)[nH]c3-c3cccc(C)n3)c2)cc1` [Example 4, 2-[2-Isopropyl-4-(4′-methoxy-1,1′-biphenyl-3-yl)-1H-imidazol-5-yl]-6-methylpyridine]: 75 to 77 °C; `Cc1cccc(-c2[nH]c(C(C)C)nc2-c2cccc(-c3ccc(C(F)(F)F)cc3)c2)n1` [Example 5, 2-{2-Isopropyl-4-[4′-(trifluoromethyl)-1,1′-biphenyl-3-yl]-1H-imidazol-5-yl}-6-methylpyridine]: 91 to 93 °C.
Next, `Cc1cccc(-c2[nH]c(C(C)C)nc2-c2cccc(-c3ccccc3F)c2)n1` [Example 6, 2-[4-(2′-Fluoro-1,1′-biphenyl-3-yl)-2-isopropyl-1H-imidazol-5-yl]-6-methylpyridine]: 153 to 155 °C.
Next, `Cc1cccc(-c2[nH]c(C(C)C)nc2-c2cccc(-c3cccc(F)c3)c2)n1` [Example 7, 2-[4-(3′-Fluoro-1,1′-biphenyl-3-yl)-2-isopropyl-1H-imidazol-5-yl]-6-methylpyridine]: 140 to 142 °C; `Cc1cccc(-c2[nH]c(C(C)C)nc2-c2cccc(-c3ccc(F)cc3)c2)n1` [Example 8, 2-[4-(4′-Fluoro-1,1′-biphenyl-3-yl)-2-isopropyl-1H-imidazol-5-yl]-6-methylpyridine]: 83 to 85 °C.
As to `Cc1cccc(-c2[nH]c(C(C)C)nc2-c2cccc(-c3ccc(F)cc3F)c2)n1` [Example 9, 2-[4-(2′,4′-Difluoro-1,1′-biphenyl-3-yl)-2-isopropyl-1H-imidazol-5-yl]-6-methylpyridine], the melting point is 70 to 72 °C.
The compound `Cc1cccc(-c2[nH]c(C(C)C)nc2-c2cccc(-c3ccc(OC(F)(F)F)cc3)c2)n1` [Example 10, 2-{2-Isopropyl-4-[4′-(trifluoromethoxy)-1,1′-biphenyl-3-yl]-1H-imidazol-5-yl}-6-methylpyridine] had a melting point of 120 to 122 °C.
In the case of `Cc1cccc(-c2[nH]c(C(C)C)nc2-c2cccc(-c3cccnc3)c2)n1` [Example 11, 2-[2-Isopropyl-4-(3-pyridin-3-ylphenyl)-1H-imidazol-5-yl]-6-methylpyridine] it was 74 to 77 °C; in that of `Cc1cccc(-c2[nH]c(C(C)C)nc2-c2cccc(-c3ccncc3)c2)n1` [Example 12, 2-[2-Isopropyl-4-(3-pyridin-4-ylphenyl)-1H-imidazol-5-yl]-6-methylpyridine], 84 to 86 °C.
For the compound `COc1ccc(-c2cccc(-c3nc(C(C)C)[nH]c3-c3cccc(C)n3)c2)cn1` [Example 13, 5-{3-[2-Isopropyl-5-(6-methylpyridin-2-yl)-1H-imidazol-4-yl]phenyl}-2-methoxypyridine], the melting point lay within 72 to 74 °C.
Next, `Cc1cccc(-c2[nH]c(C(C)C)nc2-c2cccc(-c3ccsc3)c2)n1` [Example 14, 2-[2-Isopropyl-4-(3-thien-3-ylphenyl)-1H-imidazol-5-yl]-6-methylpyridine]: 83 to 85 °C.
Next, `Cc1cccc(-c2[nH]c(C(C)C)nc2-c2cccc(-c3ccc(NS(C)(=O)=O)cc3)c2)n1` [Example 15, N-{3′-[2-Isopropyl-5-(6-methylpyridin-2-yl)-1H-imidazol-4-yl]-1,1′-biphenyl-4-yl}methanesulfonamide]: 128 to 130 °C; `CSc1ccc(-c2cccc(-c3nc(C(C)C)[nH]c3-c3cccc(C)n3)c2)cc1` [Example 16, 2-{2-Isopropyl-4-[4′-(methylthio)-1,1′-biphenyl-3-yl]-1H-imidazol-5-yl}-6-methylpyridine]: 80 to 82 °C.
Next, `Cc1cccc(-c2[nH]c(C(C)C)nc2-c2cccc(-c3cccc(S(C)(=O)=O)c3)c2)n1` [Example 18, 2-{2-Isopropyl-4-[3′-(methylsulfonyl)-1,1′-biphenyl-3-yl]-1H-imidazol-5-yl}-6-methylpyridine]: 97 to 100 °C; `Cc1cccc(-c2[nH]c(C(C)C)nc2-c2cccc(-c3cccc(NS(C)(=O)=O)c3)c2)n1` [Example 19, N-{3′-[2-Isopropyl-5-(6-methylpyridin-2-yl)-1H-imidazol-4-yl]-1,1′-biphenyl-3-yl}methanesulfonamide]: 108 to 112 °C; `Cc1cccc(-c2[nH]c(C(C)C)nc2-c2cccc(-c3cccs3)c2)n1` [Example 20, 2-[2-Isopropyl-4-(3-thien-2-ylphenyl)-1H-imidazol-5-yl]-6-methylpyridine]: 73 to 76 °C.
`Cc1cccc(-c2[nH]c(C(C)C)nc2-c2cccc(-c3ccoc3)c2)n1` [Example 21, 2-{4-[3-(3-Furyl)phenyl]-2-isopropyl-1H-imidazol-5-yl}-6-methylpyridine] yielded a melting point of 74 to 78 °C.
In the case of `Cc1cccc(-c2[nH]c(C(C)C)nc2-c2cccc(-c3ccc[nH]3)c2)n1` [Example 23, 2-{2-Isopropyl-4-[3-(1H-pyrrol-2-yl)phenyl]-1H-imidazol-5-yl}-6-methylpyridine], the melting point was in the range of 103 to 107 °C.
In the case of `CC(=O)c1ccc(-c2cccc(-c3nc(C(C)C)[nH]c3-c3cccc(C)n3)c2)cc1` [Example 24, 1-{3′-[2-Isopropyl-5-(6-methylpyridin-2-yl)-1H-imidazol-4-yl]-1,1′-biphenyl-4-yl}ethanone] it was 84 to 87 °C.
Compound `CCS(=O)(=O)c1ccc(-c2cccc(-c3nc(C(C)C)[nH]c3-c3cccc(C)n3)c2)cc1` [Example 25, 2-{2-Isopropyl-4-[4′-(ethylsulfonyl)-1,1′-biphenyl-3-yl]-1H-imidazol-5-yl}-6-methylpyridine] had a melting point of 103 to 116 °C.
In the case of `Cc1cccc(-c2[nH]c(C(C)C)nc2-c2cccc(-c3ccc([N+](=O)[O-])cc3)c2)n1` [Example 27, 2-[2-Isopropyl-4-(4′-nitro-1,1′-biphenyl-3-yl)-1H-imidazol-5-yl]-6-methylpyridine] it was 95 to 105 °C.
In the case of `Cc1cccc(-c2[nH]c(C(C)C)nc2-c2cccc(-c3ccc(N)cc3)c2)n1` [Example 28, 2-[2-Isopropyl-4-(4′-amino-1,1′-biphenyl-3-yl)-1H-imidazol-5-yl]-6-methylpyridine] it was 107 to 117 °C; in that of `Cc1cccc(-c2[nH]c(C(C)C)nc2-c2cccc(-c3ccc(CN)cc3)c2)n1` [Example 29, 1-{3′-[2-Isopropyl-5-(6-methylpyridin-2-yl)-1H-imidazol-4-yl]-1,1′-biphenyl-4-yl}methanamine], 113 to 123 °C (dec.); in that of `CCS(=O)(=O)Nc1ccc(-c2cccc(-c3nc(C(C)C)[nH]c3-c3cccc(C)n3)c2)cc1` [Example 30, N-{3′-[2-Isopropyl-5-(6-methylpyridin-2-yl)-1H-imidazol-4-yl]-1,1′-biphenyl-4-yl}ethanesulfonamide], 123 to 135 °C.
`Cc1cccc(-c2[nH]c(C(C)C)nc2-c2cccc(-c3ccc(NS(=O)(=O)C4CC4)cc3)c2)n1` [Example 31, N-{3′-[2-Isopropyl-5-(6-methylpyridin-2-yl)-1H-imidazol-4-yl]-1,1′-biphenyl-4-yl}cyclopropylsulfonamide] registered a melting point of 135 to 145 °C.
In the case of `CC(=O)Nc1ccc(-c2cccc(-c3nc(C(C)C)[nH]c3-c3cccc(C)n3)c2)cc1` [Example 32, N-{3′-[2-Isopropyl-5-(6-methylpyridin-2-yl)-1H-imidazol-4-yl]-1,1′-biphenyl-4-yl}acetamide] it was 140 to 145 °C; in that of `Cc1cccc(-c2[nH]c(C(C)C)nc2-c2cccc(-c3ccc(NC(=O)C(C)(C)O)cc3)c2)n1` [Example 34, 2-Hydroxy-N-{3′-[2-isopropyl-5-(6-methylpyridin-2-yl)-1H-imidazol-4-yl]-1,1′-biphenyl-4-yl}-2-methylpropanamide], 123 to 135 °C; in that of `Cc1cccc(-c2[nH]c(C(C)C)nc2-c2cccc(-c3ccc(C(N)=O)cn3)c2)n1` [Example 36, 6-{3-[2-Isopropyl-5-(6-methylpyridin-2-yl)-1H-imidazol-4-yl]phenyl}nicotinamide], 138 to 144 °C.
Next, `Cc1cccc(-c2nc(C(C)C)[nH]c2-c2cccc(-c3ccc(S(N)(=O)=O)cc3)c2)n1` [Example 37, 3′-[2-Isopropyl-4-(6-methylpyridin-2-yl)-1H-imidazol-5-yl]-1,1′-biphenyl-4-sulfonamide]: 255 to 258 °C; `CNS(=O)(=O)c1ccc(-c2cccc(-c3nc(C(C)C)[nH]c3-c3cccc(C)n3)c2)cc1` [Example 38, 3′-[2-Isopropyl-5-(6-methylpyridin-2-yl)-1H-imidazol-4-yl]-N-methyl-1,1′-biphenyl-4-sulfonamide]: 96 to 100 °C; `Cc1cccc(-c2[nH]c(C(C)C)nc2-c2cccc(-c3ccc(S(=O)(=O)N(C)C)cc3)c2)n1` [Example 39, 3′-[2-Isopropyl-5-(6-methylpyridin-2-yl)-1H-imidazol-4-yl]-N,N-dimethyl-1,1′-biphenyl-4-sulfonamide]: 93 to 96 °C.
In the case of `Cc1cccc(-c2[nH]c(C(C)C)nc2-c2cccc(-c3ccc(S(=O)(=O)N4CCOCC4)cc3)c2)n1` [Example 40, 4-({3′-[2-Isopropyl-5-(6-methylpyridin-2-yl)-1H-imidazol-4-yl]-1,1′-biphenyl-4-yl}sulfonyl)morpholine] it was 88 to 92 °C.
`Cc1cccc(-c2[nH]c(C(C)C)nc2-c2cccc(-c3ccc(S(=O)(=O)N4CCN(C)CC4)cc3)c2)n1` [Example 41, 1-({3′-[2-Isopropyl-5-(6-methylpyridin-2-yl)-1H-imidazol-4-yl]-1,1′-biphenyl-4-yl}sulfonyl)-4-methylpiperazine] came in with a melting point of 110 to 116 °C.
Next, `Cc1cccc(-c2[nH]c(C(C)C)nc2-c2cccc(-c3cccc(S(N)(=O)=O)c3)c2)n1` [Example 42, 3′-[2-Isopropyl-5-(6-methylpyridin-2-yl)-1H-imidazol-4-yl]-1,1′-biphenyl-3-sulfonamide]: 123 to 126 °C.
